Here are results for eight molecules from PubChem BioAssay (NCI).

Where “and” joins values, the source holds several entries; their conditions need not be identical. Identical values can stand only once.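 Briefly, cells in 96-well plates were exposed to five compound concentrations for 48 h, and endpoints were estimated by linear interpolation. Abbreviation: GI50, concentration required for 50% inhibition of growth. TGI marks complete inhibition of growth.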 Bounds are passed on as bounds.

Test systems include A498 renal; HL-60(TB) leukemia; IGROV1 ovarian; M14 melanoma; NCI-H23 lung; PC-3 prostate; RPMI-8226 leukemia; SNB-19 CNS; SW-620 colon; TK-10 renal.
What all share (experiment): growth of human tumour cells (NCI), 48 h

Consider `O=C(CCN1CCOCC1)Nc1ccc(F)cc1F`, for which the TGI in the experiment on A498 renal, with HL-60(TB) leukemia, in the experiment with IGROV1 ovarian, in the experiment with M14 melanoma, in the experiment with NCI-H23 lung and in the experiment with PC-3 prostate was more than 100 µM throughout. The TGI in the experiment on RPMI-8226 leukemia, in the experiment with SNB-19 CNS, with SW-620 colon and in the experiment with TK-10 renal was more than 100 µM each time.
Take `Cc1oc2nc[nH]c(=O)c2c1C(=O)/C=C/c1ccc(Cl)cc1`: the GI50 with A498 renal is 1480 nM; in the experiment on HL-60(TB) leukemia, 2640 nM; in the experiment with IGROV1 ovarian, 1.82 µM; in the experiment with M14 melanoma, 1960 nM; in the experiment on NCI-H23 lung it was 2.51 µM; in the experiment on PC-3 prostate, 2490 nM. Also, the GI50 with RPMI-8226 leukemia was 1660 nM; in the experiment with SNB-19 CNS, 3.28 µM; in the experiment on SW-620 colon it was 2.53 µM; with TK-10 renal, 5.09 µM. The TGI with A498 renal worked out at 5.83 µM; in the experiment on HL-60(TB) leukemia it was 7.78 µM; in the experiment on IGROV1 ovarian, 10.8 µM; with M14 melanoma, 6.72 µM; in the experiment on NCI-H23 lung, 15.3 µM; in the experiment on PC-3 prostate, 8.76 µM. The TGI with RPMI-8226 leukemia was 5.16 µM; with SNB-19 CNS, 13.7 µM; in the experiment with SW-620 colon, 7.19 µM; in the experiment with TK-10 renal, 13.6 µM.
Consider `Cc1cc(N2CCN(C)CC2)nc(NCc2cc(Nc3ccnc4cc(Cl)ccc34)ccc2F)n1`, for which the GI50 in the experiment on A498 renal was 1520 nM; in the experiment with HL-60(TB) leukemia, 1860 nM; in the experiment on IGROV1 ovarian, 2.04 µM; in the experiment with M14 melanoma it was 2000 nM; in the experiment with NCI-H23 lung it was 3.46 µM; in the experiment on PC-3 prostate it was 3510 nM. Further, the GI50 in the experiment with RPMI-8226 leukemia is 2200 nM; with SNB-19 CNS, 3.32 µM; in the experiment on SW-620 colon, 1.85 µM; in the experiment on TK-10 renal, 2.25 µM. Also, the TGI in the experiment on A498 renal is 4.03 µM; in the experiment on HL-60(TB) leukemia, 3.96 µM; in the experiment with IGROV1 ovarian it was 7.26 µM; with M14 melanoma it was 3.86 µM; with NCI-H23 lung it was more than 100 µM; in the experiment on PC-3 prostate, more than 100 µM. The TGI in the experiment with RPMI-8226 leukemia is 5.48 µM; in the experiment on SNB-19 CNS it was more than 100 µM; in the experiment on SW-620 colon it was 4.01 µM; in the experiment on TK-10 renal, 5.82 µM.
For the molecule `COC(=O)CCC(C)[C@H]1CCC2C3C(C[C@H](OC(C)=O)[C@@]21C)[C@@]1(C)CCC2(C[C@H]1C[C@H]3OC(C)=O)OOC1(CCC(C)CC1)OO2` (some centres not stated), the TGI is more than 100 µM in the experiment on A498 renal; 27.7 µM and > 100 µM with HL-60(TB) leukemia; 16.4 µM and 27.3 µM in the experiment with IGROV1 ovarian; more than 100 µM with M14 melanoma; more than 100 µM in the experiment on NCI-H23 lung; more than 100 µM in the experiment on PC-3 prostate. Moreover, the TGI was 6.34 µM and 17.2 µM in the experiment with RPMI-8226 leukemia; more than 100 µM in the experiment with SNB-19 CNS; more than 100 µM in the experiment with SW-620 colon; more than 100 µM with TK-10 renal. Moreover, the GI50 with HL-60(TB) leukemia is 3360 nM and 14900 nM; in the experiment with IGROV1 ovarian, 3.82 µM and 10.1 µM; in the experiment with NCI-H23 lung, 7.74 µM and 15.6 µM; in the experiment with PC-3 prostate it was 2980 nM and 7430 nM; in the experiment with RPMI-8226 leukemia it was 1280 nM and 3150 nM; with SW-620 colon, 4.68 µM and 31.4 µM. The GI50 with TK-10 renal was 10.8 µM and > 100 µM.
Turning to `COc1cc(NS(C)(=O)=O)ccc1Nc1c2ccccc2nc2c(C)cccc12`, the GI50 in the experiment with A498 renal was 80.6 nM and 96.8 nM; in the experiment on HL-60(TB) leukemia, 40.3 nM and 46 nM; with IGROV1 ovarian it was 0.541 µM and 0.438 µM; in the experiment with M14 melanoma, 198 nM and 129 nM; with NCI-H23 lung it was 0.134 µM and 0.191 µM; in the experiment with PC-3 prostate it was 629 nM and 1050 nM. In addition, the GI50 is 187 nM and 134 nM in the experiment with RPMI-8226 leukemia; 0.196 µM and 0.23 µM in the experiment with SNB-19 CNS; 0.0825 µM and 0.123 µM in the experiment on SW-620 colon; 0.476 µM and 0.16 µM in the experiment on TK-10 renal. In addition, the TGI in the experiment on A498 renal was 1.03 µM and 1.6 µM; in the experiment with HL-60(TB) leukemia it was 0.889 µM and 0.669 µM; with IGROV1 ovarian, 24.1 µM and 19.9 µM; in the experiment with M14 melanoma, 13.9 µM and 11.1 µM; in the experiment on NCI-H23 lung, 2.88 µM and 11.4 µM; in the experiment with PC-3 prostate it was 18.6 µM and 25.5 µM. The TGI with RPMI-8226 leukemia was 0.853 µM and 0.717 µM; in the experiment with SNB-19 CNS it was 15.5 µM and 15.9 µM; with SW-620 colon it was 3.4 µM and 4 µM; with TK-10 renal, 2.94 µM and 1.38 µM.
For the molecule `COc1ccc(C[n+]2c3ccccc3n3c4ccc(N)cc4ccc32)c(OC)c1OC`, the GI50 in the experiment with A498 renal is 17500 nM; with HL-60(TB) leukemia it was 3090 nM; in the experiment on IGROV1 ovarian, 4.58 µM; with M14 melanoma, 14900 nM; in the experiment on NCI-H23 lung, 1.99 µM; with PC-3 prostate it was 1820 nM. The GI50 in the experiment with RPMI-8226 leukemia is 512 nM; with SNB-19 CNS, 1.42 µM; with SW-620 colon, 8.39 µM; with TK-10 renal, 22.4 µM. Further, the TGI in the experiment with A498 renal amounted to 61.9 µM; in the experiment on HL-60(TB) leukemia, 11.7 µM; in the experiment with IGROV1 ovarian it was 40 µM; in the experiment on M14 melanoma, 33.3 µM; with NCI-H23 lung, 24.9 µM; in the experiment on PC-3 prostate it was 13.7 µM. Further, the TGI came to 7.64 µM in the experiment with RPMI-8226 leukemia, 15.8 µM with SNB-19 CNS, 36.5 µM with SW-620 colon and 79.4 µM with TK-10 renal.
Take `Cc1csc(/C=N/NC(=O)c2nnn(-c3ccnc4c(C(F)(F)F)cccc34)c2C)c1`: the GI50 in the experiment with A498 renal was 83100 nM; in the experiment with HL-60(TB) leukemia, 50300 nM; in the experiment on IGROV1 ovarian, more than 100 µM; in the experiment on M14 melanoma it was more than 100000 nM; with NCI-H23 lung, 48.1 µM; in the experiment with PC-3 prostate, 41100 nM. In addition, the GI50 with RPMI-8226 leukemia is 33700 nM; in the experiment with SNB-19 CNS, 97.3 µM; in the experiment on SW-620 colon it was more than 100 µM; with TK-10 renal, 41.8 µM. Also, the TGI with A498 renal, in the experiment on HL-60(TB) leukemia, in the experiment with IGROV1 ovarian, in the experiment on M14 melanoma, in the experiment on NCI-H23 lung and with PC-3 prostate was more than 100 µM throughout. For the same molecule, the TGI in the experiment on RPMI-8226 leukemia, in the experiment with SNB-19 CNS, in the experiment on SW-620 colon and in the experiment on TK-10 renal was more than 100 µM throughout.
Turning to `CN(CCC#N)c1ccc(/C=C(\C#N)c2cccc(C(F)(F)F)c2)cc1`, the GI50 in the experiment on A498 renal was 1440 nM; with HL-60(TB) leukemia, 3000 nM; in the experiment on IGROV1 ovarian, 4.95 µM; in the experiment with M14 melanoma, 3510 nM; in the experiment with NCI-H23 lung it was 3.86 µM; with PC-3 prostate, 4070 nM. In addition, the GI50 with RPMI-8226 leukemia is 3630 nM; in the experiment with SNB-19 CNS it was 17 µM; in the experiment on SW-620 colon, 3.17 µM; with TK-10 renal, 3.12 µM. The TGI with A498 renal is 8.89 µM; in the experiment with HL-60(TB) leukemia, more than 100 µM; in the experiment with IGROV1 ovarian it was more than 100 µM; with M14 melanoma it was more than 100 µM; in the experiment on NCI-H23 lung, more than 100 µM; in the experiment with PC-3 prostate, more than 100 µM. Moreover, the TGI with RPMI-8226 leukemia, in the experiment with SNB-19 CNS, with SW-620 colon and in the experiment with TK-10 renal was more than 100 µM each time.
